The results in this text go back to US20050163755A1, “Methods and compositions related to 1-caldesmon” (priority 2003, published 2005).

Common to all, as to assay type: cell-based, avian
The test system of data set [1] is DF-1 cells. Put plainly: Cell viability assay, trypan blue. The note with it: 48 hrs, 200 MOI virus or 3 μM cytochalasin D. The method, then:
Cultured cells were transfected with Ad-CaD or the controlled virus using a calcium phosphate co-precipitation technique. Cells were washed free of virus and incubated for additional 48 hours in serum containing medium. Transfected cells were exposed to trypan blue dye and the fraction of viable cells was quantitated. Viability of cells transfected with Ad-CaD and controlled virus was compared to the cell viability measured in monolayers exposed to cytochalasin for the same corresponding period.

Data set [2] deals with DF-1 cells. Put plainly: Numerical modeling of transcellular impedance (α, Rb, Cm). The conditions noted are these: 3 μM cytochalasin D, wild-type DF-1 cells. The source says: A numerical analysis was used to calculate specific cell-cell and cell-substrate adhesion and membrane capacitance based on the measured transcellular impedance. The procedure is described in more detail elsewhere for endothelial cells (Moy et al., 2002, Moy et al., 2000), fibroblasts (Giaever and Keese, 1991), and for epithelial cells (Lo et al., 1995). The total impedance across a cell-covered electrode is composed of the impedance created between the ventral surface of the cell and the electrode (related to α and due to cell-matrix adhesion), the impedance created between cells (indicated by Rb and due to cell-cell adhesion), the transcellular impedance created from transcellular current conduction (Zm) and the impedance of a naked electrode (Zn). For these calculations, Zm is inversely related to membrane capacitance (Cm), which is dependent upon membrane convolution, which, in turn, is dependent on the cortical cytoskeleton. The data was expressed as a ratio of the real or imaginary measurement of cell-covered electrode to a naked electrode as a function of current frequency between 25 to 60,000 Hz. A calculated real and imaginary value was generated from the solutions of α, Rb and Cm obtained from a multi-response Levenberg-Maquardt non-linear optimization model of the real, imaginary, real and imaginary (in complex form) and real and imaginary (in magnitude form) data. An error evaluation was calculated using a Chi square analysis of the squared sum of the calculated and the experimental residuals as a function of current frequency. […]
Using a previously reported mathematical model, it was next evaluated whether the difference in 1-CaD-mediated change in transcellular resistance was due to effects on cell-cell, cell-matrix adhesion, membrane capacitance or a combination of all three. […] A calculated resistance and capacitance was generated from iterative solutions of α, Rb and Cm obtained from a multi-response Levenberg-Maquardt non-linear optimization model of the real and/or imaginary data. […]

Data set [3] has as its system DF-1 cells. Put plainly: Transcellular resistance of confluent monolayers on microelectrode (adenovirus system). The note with it: 3 μM cytochalasin D vs virus at MOI of 200. The method, then: Quantitative transcellular impedance measurements were acquired in real-time using a previously reported technique of inoculating cultured cells grown on the surface of microelectrodes coated with 100 μg/ml of fibronectin (Moy et al., 2002, Moy et al., 1998, Moy et al., 1996, Moy et al., 2000). A 1-volt, 4000 Hz AC signal was supplied through a 1-M Ω resistor to approximate a constant-current source. Voltage and phase data were measured with a SRS830 lock-in amplifier (Stanford Instruments) and then later stored and processed with a personal computer. The in-phase voltage, proportional to the resistance, and the out-of-phase voltage, proportional to the capacitive reactance, were measured. For most situations, resistance is reported because it is most sensitive to cytoskeletal-membrane properties. […] A uniform number of viable cells (˜650,000 cells per sample), which was determined by the amount of cells that excluded trypan blue, were inoculated on the electrode to control for the effect of cell viability. Transcellular resistance was measured as a fractional change and normalized to the cell resistance of wild-type DF-1 cells. Transcellular resistance was measured at 15 hours for inter-subject comparisons—a time point at which transcellular resistance was at steady state. […]

Data set [4] has as its system DF-1 cells. Put plainly: Prestress force: constitutive isometric tension on collagen membranes. The conditions noted are these: 3 μM cytochalasin D. Here is the method:
Prestress was determined by the measured loss of constitutive isometric tension in response to cytochalasin D. Isometric tension was measured in cultured DF-1 cells inoculated on the surface of polymerized type 1 collagen membranes as described by Bodmer (1997). Isometric tension was simultaneously monitored in 2 separate isometric vectors to account for the presence of anisotropic tension. Constitutive tension was measured in cell-collagen lattices under unloaded conditions. To determine the optimal length-tension relationship during the unloaded state, the collagen gel was stretched with a micromanipulator that was attached to the transducer until a 10 mg increase in force was observed. The gel was progressively unloaded until no further decline in preload was observed. The length (Carson et al., 1989) of the gel was chosen as the no-load state. […] The constitutive tension was defined as the measured loss in tension upon the addition of cytochalasin D.
Since expression of wild-type human 1-CaD stabilizes membrane capacitance, it was next asked whether this enhancement was attributed to a reduction in myosin ATPase activity. […] Constitutive tension was measured under isometric no-load conditions in order to be consistent with the mechanical state at which transcellular resistance was measured. […]

The subject of data set [5] is DF-1 cells. Put plainly: In vitro wound closure assay to measure cell motility. The conditions noted are these: mechanical wounding. The method, then:
DF-1 cell motility was measured by wounding the cell monolayer and measuring wound closure by monitoring the traversed distance over time. DF-1 cells were plated at 70% confluence on glass cover slips coated with 100 μg/ml of fibronectin. These cells were then transfected with Ad-CaD or Ad-empty and allowed to grow to 100% confluence (2 days post-transfection). A wound was made in the monolayer using a sterile pipette tip with an outer diameter of 300 μm. The same area was captured sequentially at time intervals of 0, 1, 3, and 6 hours under phase contrast microscopy. The migrated distance was assessed at 3 locations that were separated by equal distance. Cell motility was determined as the average velocity for the 3 measurements for each time point. […]
It was next evaluated whether human wild-type 1-CaD expression disturbs cytopathic effects such as wound closure. Cell motility in response to mechanical wounding was measured to address this question. […] Cultured monolayers were subjected to mechanical wounding with a glass pipette and time-lapse images of cell motility were recorded over a period of several hours. Each image was equally divided into 3 regions, and the leading edge of cell migration was measured for each time point. Cell motility for each time point was determined as the average velocity measured for each of 3 regions. […]

As for `C=C1[C@@H](C)[C@H]2[C@H](Cc3ccccc3)NC(=O)[C@]23[C@H](OC(C)=O)/C=C/[C@@](C)(O)C(=O)[C@@H](C)C/C=C/[C@H]3[C@@H]1O` [Cytochalasin D], the “Cell viability / cell death” value in data set [1] is “decreased cell viability in a statistically significant manner”. In addition, in data set [2], the “Cm (membrane capacitance)” value is “statistically significant increase in Cm”; the “Rb (cell-cell adhesion)” value was “decrease in α and Rb”; the “α (cell-matrix adhesion)” value is “decrease in α and Rb”. Also, the Transcellular resistance entry in data set [3] is given as “greater loss in transcellular resistance than cells transfected with Ad-CaD or controlled virus”. For the same molecule, the Constitutive tension result in data set [4] is listed as “abolished constitutive tension”. In data set [5], the Wound repair result was “completely inhibited wound repair”.
